In ChEMBL document CHEMBL1133477, “Discovery of novel p-arylthio cinnamides as antagonists of leukocyte function-associated antigen-1/intracellular adhesion molecule-1 interaction. 1. Identification of an additional binding pocket based on an anilino diaryl sulfide lead” (J Med Chem, 2000) one finds IC50 data, which are given here for 64 molecules.

Assay [1] deals with T1, Intercellular adhesion molecule (ICAM-1), Integrin alpha-L/beta-2 (Homo sapiens, UniProt P05107+P20701). In words: Ability to block the interaction between integrin LFA-1 and its adhesion partner ICAM-1 in a time-resolved fluorescent LFA-1/ICAM-1 biochemical interaction assay. The class given is protein-complex assay.
Assay [2] concerns the target T1, Intercellular adhesion molecule (ICAM-1), Integrin alpha-L/beta-2. In words: Inhibition against binding of LFA-1 to ICAM-1. The class given is protein-complex assay.

By IC50 is commonly meant the concentration needed to halve the response being measured. Low readings indicate inhibition by little substance, high ones a need for much substance.

T1 sequence (P20701 whole entry): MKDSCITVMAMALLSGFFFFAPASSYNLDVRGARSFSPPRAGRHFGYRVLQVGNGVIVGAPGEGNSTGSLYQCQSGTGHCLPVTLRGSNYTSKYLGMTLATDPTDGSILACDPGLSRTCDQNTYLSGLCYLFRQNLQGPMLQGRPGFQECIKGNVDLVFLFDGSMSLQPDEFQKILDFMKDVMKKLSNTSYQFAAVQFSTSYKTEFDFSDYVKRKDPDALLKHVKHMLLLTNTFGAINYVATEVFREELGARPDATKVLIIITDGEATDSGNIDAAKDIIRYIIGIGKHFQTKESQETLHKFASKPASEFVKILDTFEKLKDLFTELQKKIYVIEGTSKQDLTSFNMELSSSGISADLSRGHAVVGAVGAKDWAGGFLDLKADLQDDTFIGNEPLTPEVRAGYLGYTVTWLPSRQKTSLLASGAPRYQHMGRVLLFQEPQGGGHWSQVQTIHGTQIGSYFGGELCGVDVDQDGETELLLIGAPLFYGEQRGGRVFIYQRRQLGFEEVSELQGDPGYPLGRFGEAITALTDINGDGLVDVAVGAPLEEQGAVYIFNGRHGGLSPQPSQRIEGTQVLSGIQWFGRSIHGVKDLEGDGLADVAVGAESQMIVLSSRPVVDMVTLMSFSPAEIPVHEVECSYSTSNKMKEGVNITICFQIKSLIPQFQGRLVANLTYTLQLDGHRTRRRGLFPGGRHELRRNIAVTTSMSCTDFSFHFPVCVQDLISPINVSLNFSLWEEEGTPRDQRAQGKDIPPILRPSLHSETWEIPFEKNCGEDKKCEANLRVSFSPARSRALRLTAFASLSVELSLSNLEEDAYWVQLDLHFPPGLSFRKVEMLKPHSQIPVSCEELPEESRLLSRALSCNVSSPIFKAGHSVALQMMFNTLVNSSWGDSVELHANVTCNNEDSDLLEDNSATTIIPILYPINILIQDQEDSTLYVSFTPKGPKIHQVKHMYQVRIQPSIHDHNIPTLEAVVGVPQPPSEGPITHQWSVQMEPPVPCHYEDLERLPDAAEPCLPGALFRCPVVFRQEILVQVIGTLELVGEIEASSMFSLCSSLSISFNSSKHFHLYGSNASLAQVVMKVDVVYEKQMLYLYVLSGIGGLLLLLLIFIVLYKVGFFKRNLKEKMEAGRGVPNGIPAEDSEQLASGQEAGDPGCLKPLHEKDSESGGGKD
T1 sequence (P05362 whole entry, further chain): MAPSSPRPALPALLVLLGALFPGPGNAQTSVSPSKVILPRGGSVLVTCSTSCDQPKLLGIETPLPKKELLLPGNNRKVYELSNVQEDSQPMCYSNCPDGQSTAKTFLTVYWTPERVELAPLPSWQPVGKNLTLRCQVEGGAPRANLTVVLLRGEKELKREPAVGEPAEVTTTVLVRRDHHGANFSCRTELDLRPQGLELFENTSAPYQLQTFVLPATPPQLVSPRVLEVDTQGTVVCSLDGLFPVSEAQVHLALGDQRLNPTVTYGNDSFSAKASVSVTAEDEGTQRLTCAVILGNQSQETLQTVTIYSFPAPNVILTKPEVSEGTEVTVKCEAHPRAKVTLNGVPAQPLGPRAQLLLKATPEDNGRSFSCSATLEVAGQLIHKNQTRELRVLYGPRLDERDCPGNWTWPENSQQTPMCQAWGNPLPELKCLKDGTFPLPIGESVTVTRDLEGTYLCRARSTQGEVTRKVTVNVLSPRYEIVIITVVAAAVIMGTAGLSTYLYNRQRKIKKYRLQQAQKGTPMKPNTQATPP
T1 sequence (P05107 whole entry): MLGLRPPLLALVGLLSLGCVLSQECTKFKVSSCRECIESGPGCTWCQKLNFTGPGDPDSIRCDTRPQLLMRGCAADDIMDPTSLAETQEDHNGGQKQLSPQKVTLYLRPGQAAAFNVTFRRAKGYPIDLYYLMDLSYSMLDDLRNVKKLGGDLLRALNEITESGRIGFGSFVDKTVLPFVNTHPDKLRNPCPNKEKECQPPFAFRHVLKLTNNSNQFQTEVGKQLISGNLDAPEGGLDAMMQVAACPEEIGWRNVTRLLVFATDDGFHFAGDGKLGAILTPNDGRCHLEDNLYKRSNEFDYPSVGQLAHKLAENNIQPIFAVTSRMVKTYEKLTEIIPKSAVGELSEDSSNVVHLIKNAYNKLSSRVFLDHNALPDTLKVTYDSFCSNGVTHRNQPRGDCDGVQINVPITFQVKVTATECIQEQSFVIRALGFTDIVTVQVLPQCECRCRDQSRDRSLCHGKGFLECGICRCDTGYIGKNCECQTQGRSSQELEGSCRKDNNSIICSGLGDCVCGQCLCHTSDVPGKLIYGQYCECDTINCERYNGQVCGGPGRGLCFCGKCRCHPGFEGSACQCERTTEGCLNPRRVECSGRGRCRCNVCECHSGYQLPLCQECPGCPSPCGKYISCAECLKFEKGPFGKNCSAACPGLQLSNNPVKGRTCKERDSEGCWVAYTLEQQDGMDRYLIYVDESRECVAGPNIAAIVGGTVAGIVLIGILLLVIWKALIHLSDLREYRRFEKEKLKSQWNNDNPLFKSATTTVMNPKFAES

As for `CC(=O)N1CCN(C(=O)/C=C/c2ccc(Sc3ccc(Cl)cc3Cl)c(Cl)c2)CC1`, in assay [1], half-maximal inhibition (IC50) was put at 140 nM. Same read-out and setting: for `O=C(/C=C/c1ccccc1Sc1ccc(Cl)cc1Cl)NCCCn1ccnc1` the value was 960 nM; for `O=CN1CCN(Cc2ccccc2Sc2ccc(/C=C/C(=O)N3CCOCC3)cc2Cl)CC1`, 420 nM; for `CC(=O)N1CCN(C(=O)/C=C/c2ccc(Sc3ccccc3Cl)c([N+](=O)[O-])c2)CC1`, 110 nM. Regarding `O=C(/C=C/c1ccccc1Sc1ccc(Cl)cc1Cl)NCCCCCCO`, the IC50 in assay [1] was determined as 100000 nM. Still for that read-out and setting: for `O=C(/C=C/c1cccc(Sc2ccc(Cl)cc2Cl)c1)N(CCO)CCO` the value was 15000 nM; for `O=C(/C=C/c1ccccc1Sc1ccc(Cl)cc1Cl)NCC1CCCO1` (centres undefined), 2100 nM; for `CC(=O)N1CCN(C(=O)/C=C/c2ccc(Sc3ccccc3N)c([N+](=O)[O-])c2)CC1`, 620 nM. The same measure, in the same setting: next, `O=C(/C=C/c1ccccc1Sc1ccc(Cl)cc1Cl)N1CCOCC1`: 1200 nM; `CC(=O)N1CCN(C(=O)/C=C/c2ccc(Sc3ccc(Cl)cc3Cl)c([N+](=O)[O-])c2)CC1`: 90 nM. `O=C(/C=C/c1ccccc1Sc1ccc(Cl)cc1Cl)NCC(O)CO` (centres undefined) yielded an IC50 in assay [1] of 3800 nM.

In the case of `O=C(/C=C/c1ccc(Sc2ccc(Cl)cc2Cl)c(Cl)c1)N1CCN(c2ccccn2)CC1`, in assay [1], the IC50 worked out at 750 nM. Same read-out and setting: for `O=C(/C=C/c1ccc(Sc2ccc(Cl)cc2Cl)c(/C=C/C(=O)N2CCOCC2)c1)N1CCOCC1` the value was above 20000 nM. In assay [1], `CC(=O)N1CCN(C(=O)/C=C/c2ccc(Sc3cccc(Cl)c3Cl)c([N+](=O)[O-])c2)CC1` showed an IC50 of 100 nM. On the same count and under the same terms, next, `CC(=O)N1CCN(C(=O)/C=C/c2ccc(Sc3ccccc3C=O)c([N+](=O)[O-])c2)CC1`: 60 nM; `CN(C)CCC(=O)Nc1ccccc1Sc1ccc(Cl)cc1Cl`: 82000 nM. `CN1CCN(CCC(=O)Nc2ccccc2Sc2ccc(Cl)cc2Cl)CC1` yielded an IC50 in assay [1] of 33000 nM. Consider `O=C(/C=C/c1ccc(Sc2ccc(Cl)cc2Cl)c(/C=C/C(=O)N2CCOCC2)c1)NCCCN1CCCC1=O`, for which the IC50 in assay [1] is above 20000 nM. In assay [1], `O=C(/C=C/c1ccc(Sc2ccccc2CN2CCOCC2)c(Cl)c1)N1CCOCC1` displayed a 50% inhibitory concentration (IC50) of 150 nM.

`CCc1ccccc1Sc1ccc(/C=C/C(=O)N2CCN(C(C)=O)CC2)cc1[N+](=O)[O-]` returned a concentration for half-maximal inhibition (IC50) in assay [1] of 65 nM. In assay [1], `O=C(O)c1cc(/C=C/C(=O)N2CCOCC2)ccc1Sc1ccc(Cl)cc1Cl` had an IC50 above 20000 nM. On the same count and under the same terms, for `CN(CCC(=O)Nc1ccccc1Sc1ccc(Cl)cc1Cl)Cc1ccccc1` the value was above 100000 nM. For `Clc1ccc(Sc2ccccc2NCCCN2CCOCC2)c(Cl)c1`, the IC50 in assay [1] was 140 nM. For `CC(=O)N1CCN(C(=O)/C=C/c2ccc(Sc3ccccc3C(N)=O)c([N+](=O)[O-])c2)CC1`, the concentration for half-maximal inhibition (IC50) in assay [1] is 16200 nM.

In the case of `O=C(/C=C/c1ccccc1Sc1ccc(Cl)cc1Cl)NCCc1ccccc1`, the IC50 in assay [1] is above 100000 nM. Same read-out and setting: for `CC(=O)N1CCN(C(=O)/C=C/c2ccc(Sc3ccccc3C)c([N+](=O)[O-])c2)CC1` the value was 120 nM; for `O=C(/C=C/c1ccc(Sc2ccc(Cl)cc2Cl)c(Cl)c1)NCCCn1ccnc1`, 1400 nM. Still for that read-out and setting: next, `O=C(/C=C/c1cccc(Sc2ccc(Cl)cc2Cl)c1)N1CCOCC1`: 16500 nM; `O=C(/C=C/c1ccc(Sc2ccc(Cl)cc2Cl)c(Cl)c1)NCCCCCCO`: 590 nM.

For `CC(=O)N1CCN(C(=O)/C=C/c2ccc(Sc3ccccc3C(C)(C)C)c([N+](=O)[O-])c2)CC1`, inhibition in assay [1] was half-maximal at 530 nM (IC50).

`O=Cc1cc(/C=C/C(=O)N2CCOCC2)ccc1Sc1ccc(Cl)cc1Cl` returned an IC50 in assay [1] of 610 nM. Turning to `O=C(/C=C/c1ccc(Sc2ccc(Cl)cc2Cl)c(NCCCN2CCOCC2)c1)NCCCN1CCCC1=O`, the IC50 in assay [1] stood at 15500 nM. For `O=C(/C=C/c1ccc(Sc2ccc(Cl)cc2Cl)c(Br)c1)NCCCN1CCCC1=O`, in assay [1], 650 nM corresponded to half-maximal inhibition (IC50).

`O=C(/C=C/c1ccccc1Sc1ccc(Cl)cc1Cl)NCCO` displayed an IC50 in assay [1] of 3300 nM.

In the case of `O=C(/C=C/c1ccc(Sc2ccc(Cl)cc2Cl)c(Cl)c1)N(CCO)CCO`, the half-maximal inhibitory concentration (IC50) in assay [1] is 710 nM. `Cc1cccc2sc(NC(=O)/C=C/c3ccccc3Sc3ccc(Cl)cc3Cl)nc12` showed an IC50 in assay [1] above 100000 nM. The molecule `Nc1cc(/C=C/C(=O)NCCCN2CCCC2=O)ccc1Sc1ccc(Cl)cc1Cl` came in with an IC50 in assay [1] of 19000 nM.

Consider `O=C(O)/C=C/c1ccc(Sc2ccc(Cl)cc2Cl)c(Cl)c1`, for which the midpoint of inhibition in assay [1], the IC50, lay at 2600 nM. In turn, `CCOC(=O)CN(C)Cc1ccccc1Sc1ccc(/C=C/C(=O)N2CCOCC2)cc1Cl` returned a concentration for half-maximal inhibition (IC50) in assay [1] of 260 nM. The molecule `CCCN(CCC)CCC(=O)Nc1ccccc1Sc1ccc(Cl)cc1Cl` showed a 50% inhibitory concentration (IC50) in assay [1] of 61000 nM. On the same count and under the same terms, for `CC(=O)N1CCN(C(=O)/C=C/c2ccc(Sc3ccc(Cl)cc3Cl)c(/C=C/C(=O)N3CCOCC3)c2)CC1` the value was 18000 nM.

`Nc1ccc(Sc2ccc(Cl)cc2Cl)c(Cl)c1` came in with an IC50 in assay [2] of 1700 nM. In assay [1], `O=C(/C=C/c1ccc(Sc2ccccc2CN2CCN(Cc3ccc4c(c3)OCO4)CC2)c(Cl)c1)N1CCOCC1` yielded an IC50 of 100 nM. The same measure, in the same setting: next, `O=C(/C=C/c1ccc(Sc2ccc(Cl)cc2Cl)c(Cl)c1)NCCO`: 920 nM; `O=C(/C=C/c1ccc(Sc2ccc(Cl)cc2Cl)c(Cl)c1)NCCCN1CCCC1=O`: 550 nM.

As for `CN1CCN(C(=O)/C=C/c2ccc(Sc3ccc(Cl)cc3Cl)c(Cl)c2)CC1`, it took 1100 nM to reach half-maximal inhibition in assay [1] (IC50). On the same count and under the same terms, next, `O=C(CCN1CCCC1)Nc1ccccc1Sc1ccc(Cl)cc1Cl`: above 10000 nM; `O=C(O)CNC(=O)/C=C/c1ccccc1Sc1ccc(Cl)cc1Cl`: 3900 nM.

In assay [1], `O=C(/C=C/c1ccccc1Sc1ccc(Cl)cc1Cl)N(CCO)CCO` came in with an IC50 of 2300 nM. Same read-out and setting: for `O=C(/C=C/c1cccc(Sc2ccc(Cl)cc2Cl)c1)NCCCn1ccnc1` the value was 7000 nM. Same read-out and setting: next, `CN(C)CCNCc1ccccc1Sc1ccc(Cl)cc1Cl`: 5600 nM; `O=C(CCN1CCOCC1)Nc1ccccc1Sc1ccc(Cl)cc1Cl`: 12000 nM. Same read-out and setting: next, `O=C(/C=C/c1ccc(Sc2ccccc2/C=C/C(=O)N2CCOCC2)c(Cl)c1)N1CCOCC1`: 180 nM.

Molecule `O=C(/C=C/c1ccccc1Sc1ccc(Cl)cc1Cl)NCCCN1CCCC1=O` displayed a half-maximal inhibitory concentration (IC50) in assay [1] of 1600 nM. Still for that read-out and setting: next, `O=C(O)/C=C/c1ccccc1Sc1ccc(Cl)cc1Cl`: 2600 nM; `CC(=O)N1CCN(C(=O)/C=C/c2ccc(Sc3ccccc3N(C)C)c([N+](=O)[O-])c2)CC1`: 310 nM. On the same count and under the same terms, for `O=C(/C=C/c1cccc(Sc2ccc(Cl)cc2Cl)c1)NCCCCCCO` the value was 9800 nM; for `O=C(/C=C/c1ccc(Sc2ccc(Cl)cc2Cl)c(Cl)c1)N1CCOCC1`, 460 nM; for `O=C(/C=C/c1ccccc1Sc1ccc(Cl)cc1Cl)N(Cc1ccccc1)Cc1ccc(Oc2ccccc2)cc1`, above 100000 nM. On the same count and under the same terms, for `O=C(/C=C/c1ccc(Sc2ccc(Cl)cc2Cl)c([N+](=O)[O-])c1)NCCCN1CCCC1=O` the value was 170 nM. For the molecule `NC(=O)c1cc(/C=C/C(=O)N2CCOCC2)ccc1Sc1ccc(Cl)cc1Cl`, the IC50 in assay [1] is above 20000 nM. Consider `O=C(/C=C/c1ccc(Sc2ccccc2NCCCN2CCOCC2)c(Cl)c1)N1CCOCC1`, for which the IC50 in assay [1] stood at 180 nM. On the same count and under the same terms, for `O=C(/C=C/c1cccc(Sc2ccc(Cl)cc2Cl)c1)NCCCN1CCCC1=O` the value was 4500 nM. In assay [2], `CN(C)CCN1c2ccccc2Sc2ccc(Cl)cc21` [CHOLRPHENETHAZINE] returned an IC50 of 28000 nM.
